According to ChEMBL document CHEMBL1649076, “Discovery of 5-chloro-N2-[(1S)-1-(5-fluoropyrimidin-2-yl)ethyl]-N4-(5-methyl-1H-pyrazol-3-yl)pyrimidine-2,4-diamine (AZD1480) as a novel inhibitor of the Jak/Stat pathway” (J Med Chem, 2011):

Legend:
Mus musculus [1] = assay: Antitumor activity against mouse BA/F3 cells expressing Tel-JAK2 xenografted in NCr mouse assessed as reduction of phosphorylated Stat5 level in spleen at 5 mg/kg, po after 2 hrs by Western blotting; assay type: functional, BaF3; design: scale not given: the % may be the effect or the level left
[2] = AUC (0 to 12 hrs) in CD1 mouse at 10 mg/kg, po; assay type: ADME, organism-based; design: time < 12 hr, dose 10 mg/kg, route oral; details: plasma
[3] = Half life in Han Wistar rat at 10 mg/kg, po and 3 mg/kg, iv; assay type: ADME, organism-based; details: in vivo
[4] = target: High affinity nerve growth factor receptor (Homo sapiens, UniProt P04629); assay: Inhibition of TrkA
[5] = Growth inhibition of human SET2 cells expressing Jak2 V617F mutant after 48 hrs by MTS assay; assay type: functional; details: SET-2, 48 h
[6] = Half life in Beagle dog at 2.5 mg/kg, iv; assay type: ADME, organism-based, Canis lupus familiaris; design: dose 2.5 mg/kg, route intravenous; details: in vivo
HEL = assay: Growth inhibition of human HEL cells expressing Jak2 V617F mutant after 48 hrs by MTS assay; assay type: functional
[7] = Volume of distribution at steady state in CD1 mouse at 3 mg/kg, iv; assay type: ADME, organism-based; design: dose 3 mg/kg, route intravenous; details: in vivo, read-out: Vdss
[8] = Half life in CD1 mouse at 3 mg/kg, iv; assay type: ADME, organism-based; design: dose 3 mg/kg, route intravenous; details: in vivo
[9] = target: T1, Tyrosine-protein kinase JAK2 (Homo sapiens, UniProt O60674); assay: Inhibition of JAK2 using 5 mM of ATP
[10] = Octanol-water partition coefficient, log D of the compound at pH 7.4 by shake flask method; assay type: physicochemical
[11] = Oral bioavailability in Han Wistar rat at 10 mg/kg; assay type: ADME, organism-based; details: in vivo
[12] = target: T1, Tyrosine-protein kinase JAK2; assay: Inhibition of JAK2 using Km ATP concentration
[13] = Oral bioavailability in Beagle dog at 10 mg/kg; assay type: ADME, organism-based, Canis lupus familiaris; details: in vivo
[14] = Growth inhibition of human UKE1 cells expressing Jak2 V617F mutant after 48 hrs by MTS assay; assay type: functional; details: UKE1, 48 h
[15] = Aqueous equilibrium solubility of the compound at pH 7.4 by HPLC-UV analysis; assay type: physicochemical
[16] = Half life in Beagle dog at 10 mg/kg, po; assay type: ADME, organism-based, Canis lupus familiaris; design: dose 10 mg/kg, route oral; details: in vivo
[17] = Volume of distribution at steady state in Han Wistar rat at 10 mg/kg, po and 3 mg/kg, iv; assay type: ADME, organism-based; details: in vivo, read-out: Vdss
[18] = AUC (0 to 12 hrs) in Beagle dog at 10 mg/kg, po; assay type: ADME, organism-based, Canis lupus familiaris; design: time < 12 hr, dose 10 mg/kg, route oral; details: plasma
[19] = Observed clearance in Beagle dog at 2.5 mg/kg, iv; assay type: ADME, organism-based, Canis lupus familiaris; design: dose 2.5 mg/kg, route intravenous; details: in vivo
[20] = Antitumor activity against mouse BA/F3 cells expressing Tel-JAK2-luc xenografted in NCr mouse assessed as reduction of bioluminescent signal at 30 mg/kg, po bid measured on day 9 post-tumor cell implantation relative to control; assay type: functional, BaF3
[21] = Observed clearance in CD1 mouse at 3 mg/kg, iv; assay type: ADME, organism-based; design: dose 3 mg/kg, route intravenous; details: in vivo
Mus musculus [22] = assay: Antitumor activity against mouse BA/F3 cells expressing Tel-JAK2 xenografted in NCr mouse assessed as reduction of phosphorylated Stat5 level in spleen at 5 mg/kg, po after 6 hrs by Western blotting; assay type: functional, BaF3; design: scale not given: the % may be the effect or the level left
[23] = Inhibition of Stat5 phosphorylation in mouse Ba/F3 cells expressing TEL-Jak2; assay type: cell-based; details: BaF3
Liver microsomes = assay: Intrinsic clearance in rat liver microsomes assessed per mg of protein at 2 uM by LCMS/MS analysis; assay type: ADME, Microsome
[24] = Growth inhibition of mouse BA/F3 cells expressing Tel-JAK2 kinase after 48 hrs by MTS assay; assay type: functional; details: BaF3, 48 h
[25] = target: T2, Tyrosine-protein kinase JAK3 (Homo sapiens, UniProt P52333); assay: Inhibition of JAK3 using 5 mM of ATP
T2 sequence (P52333 whole entry): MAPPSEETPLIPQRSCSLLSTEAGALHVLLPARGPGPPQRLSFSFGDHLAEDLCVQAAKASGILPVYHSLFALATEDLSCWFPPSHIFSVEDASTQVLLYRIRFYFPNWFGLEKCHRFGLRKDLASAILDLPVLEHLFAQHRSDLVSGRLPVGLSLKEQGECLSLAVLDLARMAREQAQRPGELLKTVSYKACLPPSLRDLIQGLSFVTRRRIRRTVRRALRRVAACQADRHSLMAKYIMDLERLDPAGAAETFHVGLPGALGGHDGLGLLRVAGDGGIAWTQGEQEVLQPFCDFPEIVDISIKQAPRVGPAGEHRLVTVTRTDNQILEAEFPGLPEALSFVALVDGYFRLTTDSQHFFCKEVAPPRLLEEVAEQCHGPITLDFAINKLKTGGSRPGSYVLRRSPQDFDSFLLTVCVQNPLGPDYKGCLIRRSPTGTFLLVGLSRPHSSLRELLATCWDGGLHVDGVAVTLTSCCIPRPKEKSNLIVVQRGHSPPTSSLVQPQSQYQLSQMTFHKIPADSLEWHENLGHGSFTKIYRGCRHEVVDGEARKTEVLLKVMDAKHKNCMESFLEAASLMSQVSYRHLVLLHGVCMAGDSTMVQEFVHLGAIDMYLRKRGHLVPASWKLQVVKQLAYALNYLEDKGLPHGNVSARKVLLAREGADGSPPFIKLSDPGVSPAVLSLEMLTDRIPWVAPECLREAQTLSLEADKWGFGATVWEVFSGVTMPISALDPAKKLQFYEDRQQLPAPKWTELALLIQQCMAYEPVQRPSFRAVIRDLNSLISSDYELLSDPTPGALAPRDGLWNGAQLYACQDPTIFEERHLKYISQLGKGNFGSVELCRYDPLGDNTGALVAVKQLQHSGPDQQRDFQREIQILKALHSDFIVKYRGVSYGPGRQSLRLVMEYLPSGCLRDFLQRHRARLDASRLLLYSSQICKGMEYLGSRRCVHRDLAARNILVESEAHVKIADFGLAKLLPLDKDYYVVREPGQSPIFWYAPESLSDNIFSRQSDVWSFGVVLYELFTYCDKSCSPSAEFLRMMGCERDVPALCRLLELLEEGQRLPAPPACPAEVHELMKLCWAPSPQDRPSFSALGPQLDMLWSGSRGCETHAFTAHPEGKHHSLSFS

[26] = Antitumor activity against mouse BA/F3 cells expressing Tel-JAK2-luc xenografted in NCr mouse assessed as reduction of bioluminescent signal at 50 mg/kg, po bid measured on day 9 post-tumor cell implantation relative to control; assay type: functional, BaF3
[27] = Growth inhibition of mouse BA/F3 cells expressing Tel-JAK3 kinase after 48 hrs by MTS assay; assay type: functional; details: BaF3, 48 h
[28] = Growth inhibition of mouse BA/F3 cells expressing Tel-JAK1 kinase after 48 hrs by MTS assay; assay type: functional; details: BaF3, 48 h
[29] = Volume of distribution at steady state in Beagle dog at 2.5 mg/kg, iv; assay type: ADME, organism-based, Canis lupus familiaris; design: dose 2.5 mg/kg, route intravenous; details: in vivo, read-out: Vdss
[30] = Oral bioavailability in CD1 mouse at 10 mg/kg; assay type: ADME, organism-based; details: in vivo
[31] = Half life in CD1 mouse at 10 mg/kg, po; assay type: ADME, organism-based; design: dose 10 mg/kg, route oral; details: in vivo
[32] = Observed clearance in Han Wistar rat at 10 mg/kg, po and 3 mg/kg, iv; assay type: ADME, organism-based; details: in vivo
[33] = Growth inhibition of mouse BA/F3 cells expressing Tel-Tyk2 kinase after 48 hrs by MTS assay; assay type: functional; details: BaF3, 48 h
Mus musculus [34] = assay: Antitumor activity against mouse BA/F3 cells expressing Tel-JAK2 xenografted in NCr mouse assessed as reduction of phosphorylated Stat5 level in spleen at 10 mg/kg, po after 8 hrs by Western blotting; assay type: functional, BaF3; design: scale not given: the % may be the effect or the level left

T1 sequence (O60674 whole entry): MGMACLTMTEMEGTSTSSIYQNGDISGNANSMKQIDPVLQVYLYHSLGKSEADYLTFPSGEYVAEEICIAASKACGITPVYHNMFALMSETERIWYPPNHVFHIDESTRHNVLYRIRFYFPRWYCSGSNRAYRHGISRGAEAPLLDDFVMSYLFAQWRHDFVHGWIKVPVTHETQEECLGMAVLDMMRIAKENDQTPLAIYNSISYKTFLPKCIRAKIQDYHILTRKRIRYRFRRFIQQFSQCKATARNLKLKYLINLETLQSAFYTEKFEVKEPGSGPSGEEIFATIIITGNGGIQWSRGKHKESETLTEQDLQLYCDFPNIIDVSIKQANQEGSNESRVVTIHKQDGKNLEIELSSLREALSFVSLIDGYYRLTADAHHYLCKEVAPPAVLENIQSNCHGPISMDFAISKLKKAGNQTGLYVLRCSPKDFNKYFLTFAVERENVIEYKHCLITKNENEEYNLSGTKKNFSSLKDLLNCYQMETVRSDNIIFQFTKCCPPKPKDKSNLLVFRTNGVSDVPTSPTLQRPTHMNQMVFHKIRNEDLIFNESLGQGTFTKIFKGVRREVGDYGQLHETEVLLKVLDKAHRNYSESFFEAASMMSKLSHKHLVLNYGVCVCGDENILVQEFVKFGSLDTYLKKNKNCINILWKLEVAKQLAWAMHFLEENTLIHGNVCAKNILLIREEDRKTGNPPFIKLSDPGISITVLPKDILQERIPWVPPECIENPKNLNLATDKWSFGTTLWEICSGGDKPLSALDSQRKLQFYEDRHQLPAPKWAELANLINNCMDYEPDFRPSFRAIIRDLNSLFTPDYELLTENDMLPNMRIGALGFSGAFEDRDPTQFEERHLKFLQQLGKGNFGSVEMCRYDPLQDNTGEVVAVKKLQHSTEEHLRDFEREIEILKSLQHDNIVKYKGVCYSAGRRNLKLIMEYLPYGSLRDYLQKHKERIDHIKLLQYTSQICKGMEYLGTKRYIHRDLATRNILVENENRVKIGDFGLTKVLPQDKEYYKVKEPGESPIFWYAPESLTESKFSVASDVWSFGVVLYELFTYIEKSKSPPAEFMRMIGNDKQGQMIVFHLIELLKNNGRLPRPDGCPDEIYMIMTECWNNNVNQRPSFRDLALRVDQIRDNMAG
Chain of High affinity nerve growth factor receptor (P04629 whole entry): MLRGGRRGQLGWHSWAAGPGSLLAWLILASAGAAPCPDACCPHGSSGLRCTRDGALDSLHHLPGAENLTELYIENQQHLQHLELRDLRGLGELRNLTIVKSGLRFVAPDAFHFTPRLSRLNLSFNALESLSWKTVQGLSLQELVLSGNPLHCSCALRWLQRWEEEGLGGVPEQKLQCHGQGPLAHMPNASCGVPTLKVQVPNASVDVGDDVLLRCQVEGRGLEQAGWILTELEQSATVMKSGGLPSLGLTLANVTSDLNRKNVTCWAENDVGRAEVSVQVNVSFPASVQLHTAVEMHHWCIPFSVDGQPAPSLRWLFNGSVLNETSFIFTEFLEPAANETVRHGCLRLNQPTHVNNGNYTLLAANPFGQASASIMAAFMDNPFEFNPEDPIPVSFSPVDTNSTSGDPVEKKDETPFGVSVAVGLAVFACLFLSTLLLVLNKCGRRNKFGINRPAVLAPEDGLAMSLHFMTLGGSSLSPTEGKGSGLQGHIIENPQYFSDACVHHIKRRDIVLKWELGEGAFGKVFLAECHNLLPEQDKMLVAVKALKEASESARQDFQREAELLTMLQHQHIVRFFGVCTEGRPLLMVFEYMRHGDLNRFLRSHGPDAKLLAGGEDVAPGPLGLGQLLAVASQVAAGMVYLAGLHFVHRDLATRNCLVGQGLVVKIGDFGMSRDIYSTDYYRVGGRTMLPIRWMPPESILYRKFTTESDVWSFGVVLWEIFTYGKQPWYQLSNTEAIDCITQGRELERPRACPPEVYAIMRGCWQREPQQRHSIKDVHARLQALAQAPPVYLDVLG

SMILES: Cc1cc(Nc2nc(N[C@@H](C)c3ncc(F)cn3)ncc2Cl)n[nH]1 [AZD-1480]
- Activity (Mus musculus [1]): 90%
- AUC(0-t) at 12 h [2]: 57.6 µM·h
- half-life [3]: 4.7 h
- IC50 [4]: 3 nM
- GI50 [5]: 16 nM
- half-life [6]: 6.9 h
- GI50 (HEL): 390 nM
- Vd [7]: 1.1 L/kg
- half-life [8]: 1.5 h
- IC50 [9]: 58 nM
- logD [10]: < 2.6
- bioavailability [11]: 47%
- IC50 [12]: < 3 nM
- bioavailability [13]: 100%
- GI50 [14]: 54 nM
- solubility thermodynamic [15]: > 460 µM
- half-life [16]: 8.5 h
- Vd [17]: 3.6 L/kg
- AUC(0-t) at 12 h [18]: 350 µM·h
- clearance [19]: 2 mL/min/kg
- Activity [20]: 9
- clearance [21]: 13.5 mL/min/kg
- Activity (Mus musculus [22]): 50%
- IC50 [23]: 46 nM
- clearance (Liver microsomes): 11 µL/min/mg
- GI50 [24]: 60 nM
- IC50 [25]: 1360 nM
- Activity [26]: 44
- GI50 [27]: 2100 nM
- GI50 [28]: 700 nM
- Vd [29]: 1 L/kg
- bioavailability [30]: 100%
- half-life [31]: 2 h
- clearance [32]: 8.9 mL/min/kg
- GI50 [33]: 2000 nM
- Activity (Mus musculus [34]): >70%
